Reference: US9434978B2, “Culture medium for screening or enrichment of methicillin-resistant S. aureus” (BIO-RAD INNOVATIONS, priority 2009, dated 2016)

Tested on: MSSA
Assay: Specificity of the medium on the MSSA strains
Type: cell-based, Staphylococcus aureus
Details: 8 MSSA strains; for number of MSSA strains that grew at 24 h after stress: plates 3 days at 37° C. before inoculation
Source text: The basal medium comprises peptone, salts, antifungal and antibacterial agents to inhibit the growth of Gram negative bacteria and fungi. The basal medium is chosen to promote the growth of staphylococci, in particular Staphylococcus aureus.
Several strains of MRSA (methicillin resistant S. aureus) and MSSA (methicillin susceptible S. aureus) have been chosen from a collection of strains. Strains were cultivated first on a non selective medium. The colonies are used to perform a “heavy inoculum or HI”, corresponding to approximately 10^8 bacteria/mL inoculated as a spot on a small portion of the plate, and a “light inoculum or LI”, corresponding to approximately 10^5 bacteria/mL streaked on a large portion of the plate. Plates were incubated for 48 h at 35-37° C. The reading was performed at 24 and 48 h of incubation time.
Abbreviations and legends to the Tables: • cefotetan (CTT) • ceftriaxone (CRO) • cefuroxime (CXM) • cefsulodin (CFS), • Cefepime (FEP) • Cefoperazone (CFP) • cefpodoxime (CPD) • moxalactam (MOX) • cefoxitin (FOX) • cefmetazole (CMT) • ceftiofur (XLN) • G: growth (if nothing else is written, “G” means growth with HI and LI at 24 h); Imp G: heavy growth; AG: absence of growth; cfu: colony forming unit; μcfu: pinpoint colonies; SENS: Sensitivity (%); SPE: Specificity (%); MRSA: methicillin-resistant Staphylococcus aureus; MSSA: methicillin-sensitive Staphylococcus aureus; MRSE: methicillin-resistant Staphylococcus epidermidis; MSSE: methicillin-sensitive Staphylococcus epidermidis; Results
When two cephalosporins are added, the stability of the formula is increased. Due to the fact that the molecules are unstable, growth of MSSA often appears after stress. The inventors have mimicked the stress due to transportation of the Petri dishes to the customer's lab, in summer, by placing the plates for 3 days at 37° C. before inoculation and incubation 24 or 48 h. The basal medium composition was the same as described in Example 1. Abbreviations have the same meaning.

Compound	number of MSSA strains that grew at 24 h after stress	number of MSSA strains able to grow at 24 h (plates not submitted to stress)
CO/N=C(\C(=O)N[C@@H]1C(=O)N2C(C(=O)O)=C(CSc3nc(=O)c(=O)[nH]n3C)CS[C@H]12)c1csc(N)n1 [CRO, ceftriaxone]	four	one
CO[C@@]1(NC(=O)Cc2cccs2)C(=O)N2C(C(=O)O)=C(COC(N)=O)CS[C@@H]21 [FOX, cefoxitin]	4	–
CO[C@@]1(NC(=O)C(C(=O)O)c2ccc(O)cc2)C(=O)N2C(C(=O)O)=C(CSc3nnnn3C)CO[C@@H]21 (stereo partly shown) [MOX, moxalactam]	4	–
